We go through 59 compounds from the OPERA property sets (Mansouri et al. 2018).

Conditions in the first data set: not given
As a reminder, the melting point is the temperature of the solid-liquid transition. Take `CN1C(=O)C(=O)c2ccccc21`: the melting point turned out to be 132 °C.
The term boiling point denotes the temperature of boiling at a given pressure. `Nc1c(Br)cc(Br)cc1Br` displayed a boiling point of 300 °C and a melting point of 122 °C.
For `c1ccn2cccc2c1` the same measures were 205 °C and 75 °C.
Turning to `COCCCNc1nc(NC(C)C)nc(SC)n1`, the log10 vapour pressure (mmHg) was -6.55.
Consider `N#Cc1ccc(F)cc1`, for which the boiling point was 189 °C and the melting point worked out at 34.8 °C.
Compound `CCOCc1ccccc1` gave a boiling point of 186 °C and a log10 vapour pressure (mmHg) of -0.0339.
Take `C[C@]12CC[C@H](O)C[C@H]1CC[C@@H]1[C@@H]2CC[C@]2(C)[C@@H](C3=CC(=O)OC3)CC[C@]12O`: the melting point was 253 °C.
`Fc1c(F)c(F)c(Br)c(Br)c1F` returned a boiling point of 198 °C and a melting point of 12 °C.
Regarding `C=CCOC(=O)c1ccccc1C(=O)OCC=C`, the ready biodegradability result is “readily biodegradable”.
In turn, `O=C(O)c1ccccc1C(=O)Nc1cccc2ccccc12` registered a melting point of 185 °C.
For `CC(C)(C)I`, the boiling point is 100 °C and the melting point is -38.2 °C.
For `C/C=C/CCCCCCCC` the same measures were 194 °C and -57.4 °C.
For the compound `CC(C)(C)C(=O)NNCc1ccccc1`, the melting point was determined as 68.5 °C.
Same read-out and setting: the figure for `S=C1NC(=S)C(c2ccccc2)(c2ccccc2)N1` is 263 °C.
Compound `Clc1cc2c(Cl)ccc(Cl)c2cc1Cl` came in with a log10 Koa of 8.13.
In the case of `O=C1OC(c2ccc(O)c3ccccc23)(c2ccc(O)c3ccccc23)c2ccccc21`, the melting point is 254 °C.
With `CCCCC(=O)OC(=O)CCCC`, the boiling point stood at 227 °C and the melting point is -56.1 °C.
For `Cc1cc(C)c(Br)c(C)c1` the same measures were 225 °C and -1 °C.
Consider `CCC(C(=O)O)C(=O)O`, for which the melting point came to 114 °C.
The same measure, in the same setting: the figure for `COc1c(OC)c2occc2c2oc(=O)ccc12` is 119 °C.
`CC(=O)C1=CCCCC1` registered a boiling point of 202 °C and a melting point of 73 °C.
The like results for `Cc1cc(C)c([N+](=O)[O-])cc1C` were, in that order, 265 °C and 71 °C.
On to `C=CCCCCCCCCC(=O)O`, for which the boiling point is 275 °C, the log10 vapour pressure (mmHg) is -3.03 and the melting point is 24.5 °C.
For `CCCC(C)=C(C)C` the same measures were 122 °C, 1.26 and -115 °C.
Consider `C=CCC(=O)O`, for which the boiling point was 169 °C and the melting point is -35 °C.
For `Nc1c2c(nc3ccccc13)CCCC2`, the melting point turned out to be 184 °C.
Compound `c1ccc(C(c2ccccc2)c2ccccc2)cc1` returned a boiling point of 359 °C, a log10 vapour pressure (mmHg) of -5.25 and a melting point of 94 °C.
As to `COc1cccc(C(=O)NN)c1`, the melting point stood at 94 °C.
As to `NC1=NCCS1`, the melting point is 85.3 °C.
In turn, `COC(=O)c1ccccc1[N+](=O)[O-]` came in with a boiling point of 275 °C and a melting point of -13 °C.
As for `CNC(=O)Oc1cccc2c1OC(C)(C)O2`, the log10 Koc (L/kg) worked out at 2.75.
`CCOC(=O)C(=O)C(=O)OCC`: the boiling point was 210 °C and the melting point was -30 °C.
In the case of `Cc1ncc(COP(=O)(O)O)c(C=O)c1O`, the melting point amounted to 255 °C.
`O=C=NS(=O)(=O)Cl`: the boiling point was 107 °C and the melting point is -44 °C.
Take `CCC(C1CCCCC1)C1CCCCC1`: the boiling point was 284 °C and the melting point is -23.5 °C.
`Nc1ccc2[nH]ccc2c1` registered a melting point of 132 °C.
Same read-out and setting: the figure for `O=[N+]([O-])c1ccc(-c2ccccc2[N+](=O)[O-])cc1` is 93.5 °C.
`CCCCOC(=O)C(C)C` registered a boiling point of 155 °C.
The same measure, in the same setting: the figure for `CCOC=Nc1ccccc1` is 214 °C.
As to `CC=CCC`, the boiling point turned out to be 36.7 °C and the melting point was -146 °C.
Compound `CCC(C)(C)c1ccc(O)cc1` showed a boiling point of 262 °C, a log10 vapour pressure (mmHg) of -2.7 and a melting point of 95 °C.
Consider `Cc1ccc(C)c(C)n1`, for which the boiling point is 172 °C.
`CC#CCCCCCCCC` showed a boiling point of 204 °C and a melting point of -30.1 °C.
Compound `O=C(O)Cc1ccc(-c2ccccc2)cc1` came in with a melting point of 160 °C.
Consider `Cc1cc(NS(=O)(=O)c2ccc(N)cc2)sn1`, for which the melting point is 192 °C.
The compound `CCCN(CCC)c1ccccc1` yielded a boiling point of 242 °C.
As for `Cc1ccccc1B(O)O`, the melting point amounted to 166 °C.
Consider `OC(CNc1ccccn1)c1ccccc1` (stereo unspecified), for which the melting point was determined as 83.5 °C.
Compound `Cc1ccc(C)s1` displayed a boiling point of 136 °C, a log10 vapour pressure (mmHg) of 0.994 and a melting point of -62.6 °C.
Turning to `Clc1ccccc1Oc1ccccc1`, the log10 vapour pressure (mmHg) is -2.4.
Compound `Cc1ncc(CSSCc2cnc(C)c(O)c2CO)c(CO)c1O` displayed a melting point of 219 °C.
In the case of `CC(C)C(=O)OC1CCCCC1`, the boiling point stood at 204 °C.

The data set is the same for the next values; noted with them: fish.
Turning to `Nc1cc(Cl)c(Cl)c(Cl)c1`, the log10 BCF was determined as 2.36 and the log10 biotransformation half-life (days) came to 0.28.
For `CCCCOCCCC` the same measures were 1.86 and -0.25.
Take `Nc1c(Cl)c(Cl)cc(Cl)c1Cl`: the log10 BCF came out at 2.52.
As for `CCCCCCCCC(C)CCC` (stereo unspecified), the log10 biotransformation half-life (days) was 0.98.
The compound `ClC1C(Br)C(Br)C(Br)C(Br)C1Br` (stereo unspecified) gave a log10 BCF of 2.41 and a log10 biotransformation half-life (days) of -0.31.
The compound `Clc1cc(Cl)c(Oc2cc(Cl)c(Cl)cc2Cl)c(Cl)c1` gave a log10 biotransformation half-life (days) of 2.01.
On to `CC(C)(c1ccc(OC(F)(F)C(F)F)cc1)c1ccc(OC(F)(F)C(F)F)cc1`, for which the log10 BCF was determined as 4.35 and the log10 biotransformation half-life (days) amounted to 2.79.
